Columns and labels:
[1] = test system: B16 murine melanoma tumours; test: Ex vivo biodistribution study for compound [125I](1); format: in vivo, C57BL/6J mice
Protocol: Twenty four B16BL6 primary melanoma bearing mice were intravenously injected with 2.2 MBq of [^1251]1 and sacrificed 1 h, 3 h, 6 h, 24 h, 72 h and 10 days after tracer injection (n=4/time point). Tumours and major organs and tissues were promptly excised, harvested, weighted and their radioactivity counted using a calibrated γ-counter with a […] energy window. After radioactive decay correction, results were expressed as percentage of injected dose per gram of tissue (% ID/g).

[2] = Metabolism of compound [125I](1); format: in vivo, mice
Protocol: 24 primary melanoma bearing mice were intravenously injected with 2.2 MBq of [^1251](1) and sacrificed 1 h, 3 h, 6 h, 24 h, 72 h and 10 days after tracer injection. To determine the metabolic stability of [^1251](1), blood, tumour, eyes, liver, kidney and urine samples were collected at each time point […]. Faeces were collected between 0-24 h and 24-48 h. Blood was immediately diluted in 5 mL of methanol/NH4OH 99.8:0.2 and centrifuged for 5 min at 3,000 rpm. Tumour, eyes, liver, kidneys and faeces were suspended in 5 mL of methanol/NH4OH 99.8:0.2, homogenized using GentleMACS™ dissociator (Miltenyi Biotec, Bergisch Gladbach, Germany) and centrifuged for 5 min at 3,000 rpm (repeated 2 times). Urines were analysed without any treatment. The extraction efficiency was determined by measuring the radioactivity of supernatants and precipitates. Supernatants were passed through a 0.22 μm Millipore filter and then concentrated to a volume between 200 and 500 μL before injection (duplicate) onto the analytical HPLC(C18 column; solvent A: H2O (0.2% NH4OH); solvent B: MeOH (0.2% NH4OH); Gradient elution: 0-5 min: 90 to 70% of A (Q=0.5 mL·min^−1); 5-30 min: 70 to 20% of A (Q=0.9 mL·min^−1); 30-32 min: 10% of A (Q=0.9 mL·min^−1)).

CCN(CCNC(=O)c1cnc2cc([125I])ccc2n1)CCOCCOCCOCCF [[^125I](1)]
% ID/g Adipose ([1]; 1 h p.i.): 0.61 ± 0.01 % ID/g | % ID/g Blood ([1]; 1 h p.i.): 0.97 ± 0.07 % ID/g | % ID/g Bones ([1]; 1 h p.i.): 0.79 ± 0.09 % ID/g | % ID/g Brain ([1]; 1 h p.i.): 0.27 ± 0.03 % ID/g | % ID/g Ceacum ([1]; 1 h p.i.): 4.97 ± 3.01 % ID/g | % ID/g Colon ([1]; 1 h p.i.): 4.51 ± 4.40 % ID/g | % ID/g Heart ([1]; 1 h p.i.): 1.17 ± 0.07 % ID/g | % ID/g Kidney ([1]; 1 h p.i.): 4.75 ± 0.71 % ID/g | % ID/g Liver ([1]; 1 h p.i.): 6.33 ± 1.69 % ID/g | % ID/g Lung ([1]; 1 h p.i.): 3.12 ± 0.42 % ID/g | % ID/g Muscle ([1]; 1 h p.i.): 0.55 ± 0.16 % ID/g | % ID/g Pancreas ([1]; 1 h p.i.): 2.96 ± 0.15 % ID/g | % ID/g Skin ([1]; 1 h p.i.): 1.04 ± 0.06 % ID/g | % ID/g Small intestine ([1]; 1 h p.i.): 16.68 ± 10.70 % ID/g | % ID/g Spleen ([1]; 1 h p.i.): 2.14 ± 0.20 % ID/g | % ID/g Stomach ([1]; 1 h p.i.): 9.2 ± 1.49 % ID/g | % ID/g Testes ([1]; 1 h p.i.): 0.68 ± 0.19 % ID/g | % ID/g Adipose ([1]; 3 h p.i.): 0.36 ± 0.05 % ID/g | % ID/g Blood ([1]; 3 h p.i.): 0.82 ± 0.05 % ID/g | % ID/g Bones ([1]; 3 h p.i.): 0.48 ± 0.03 % ID/g | % ID/g Brain ([1]; 3 h p.i.): 0.15 ± 0.01 % ID/g | % ID/g Ceacum ([1]; 3 h p.i.): 25.73 ± 7.88 % ID/g | % ID/g Colon ([1]; 3 h p.i.): 21.19 ± 18.02 % ID/g | % ID/g Heart ([1]; 3 h p.i.): 0.77 ± 0.05 % ID/g | % ID/g Kidney ([1]; 3 h p.i.): 3.14 ± 1.27 % ID/g | % ID/g Liver ([1]; 3 h p.i.): 3.37 ± 0.14 % ID/g | % ID/g Lung ([1]; 3 h p.i.): 2.14 ± 0.27 % ID/g | % ID/g Muscle ([1]; 3 h p.i.): 0.30 ± 0.04 % ID/g | % ID/g Pancreas ([1]; 3 h p.i.): 1.48 ± 0.07 % ID/g | % ID/g Skin ([1]; 3 h p.i.): 1.34 ± 0.72 % ID/g | % ID/g Small intestine ([1]; 3 h p.i.): 4.16 ± 0.70 % ID/g | % ID/g Spleen ([1]; 3 h p.i.): 2.37 ± 2.58 % ID/g | % ID/g Stomach ([1]; 3 h p.i.): 4.53 ± 0.94 % ID/g | % ID/g Testes ([1]; 3 h p.i.): 0.54 ± 0.03 % ID/g | % ID/g Adipose ([1]; 6 h p.i.): 0.19 ± 0.06 % ID/g | % ID/g Blood ([1]; 6 h p.i.): 0.62 ± 0.20 % ID/g | % ID/g Bones ([1]; 6 h p.i.): 0.30 ± 0.10 % ID/g | % ID/g Brain ([1]; 6 h p.i.): 0.08 ± 0.03 % ID/g | % ID/g Ceacum ([1]; 6 h p.i.): 23.31 ± 16.47 % ID/g | % ID/g Colon ([1]; 6 h p.i.): 15.92 ± 9.97 % ID/g | % ID/g Heart ([1]; 6 h p.i.): 0.46 ± 0.17 % ID/g | % ID/g Kidney ([1]; 6 h p.i.): 1.56 ± 0.82 % ID/g | % ID/g Liver ([1]; 6 h p.i.): 2.02 ± 0.64 % ID/g | % ID/g Lung ([1]; 6 h p.i.): 1.04 ± 0.37 % ID/g | % ID/g Muscle ([1]; 6 h p.i.): 0.17 ± 0.07 % ID/g | % ID/g Pancreas ([1]; 6 h p.i.): 0.65 ± 0.18 % ID/g | % ID/g Skin ([1]; 6 h p.i.): 0.62 ± 0.31 % ID/g | % ID/g Small intestine ([1]; 6 h p.i.): 2.23 ± 1.35 % ID/g | % ID/g Spleen ([1]; 6 h p.i.): 6.45 ± 8.15 % ID/g | % ID/g Stomach ([1]; 6 h p.i.): 7.39 ± 4.08 % ID/g | % ID/g Testes ([1]; 6 h p.i.): 0.36 ± 0.08 % ID/g | % ID/g Adipose ([1]; 24 h p.i.): 0.028 ± 0.00 % ID/g | % ID/g Blood ([1]; 24 h p.i.): 0.06 ± 0.01 % ID/g | % ID/g Bones ([1]; 24 h p.i.): 0.03 ± 0.00 % ID/g | % ID/g Brain ([1]; 24 h p.i.): 0.01 ± 0.01 % ID/g | % ID/g Ceacum ([1]; 24 h p.i.): 0.41 ± 0.13 % ID/g | % ID/g Colon ([1]; 24 h p.i.): 0.69 ± 0.23 % ID/g | % ID/g Heart ([1]; 24 h p.i.): 0.16 ± 0.06 % ID/g | % ID/g Kidney ([1]; 24 h p.i.): 0.15 ± 0.02 % ID/g | % ID/g Liver ([1]; 24 h p.i.): 0.46 ± 0.10 % ID/g | % ID/g Lung ([1]; 24 h p.i.): 0.08 ± 0.01 % ID/g | % ID/g Muscle ([1]; 24 h p.i.): 0.02 ± 0.00 % ID/g | % ID/g Pancreas ([1]; 24 h p.i.): 0.05 ± 0.01 % ID/g | % ID/g Skin ([1]; 24 h p.i.): 0.17 ± 0.00 % ID/g | % ID/g Small intestine ([1]; 24 h p.i.): 0.12 ± 0.03 % ID/g | % ID/g Spleen ([1]; 24 h p.i.): 0.06 ± 0.01 % ID/g | % ID/g Stomach ([1]; 24 h p.i.): 0.54 ± 0.25 % ID/g | % ID/g Testes ([1]; 24 h p.i.): 0.03 ± 0.01 % ID/g | % ID/g Adipose ([1]; 72 h p.i.): 0.02 ± 0.00 % ID/g | % ID/g Bones ([1]; 72 h p.i.): 0.02 ± 0.01 % ID/g | % ID/g Brain ([1]; 72 h p.i.): 0.01 ± 0.00 % ID/g | % ID/g Ceacum ([1]; 72 h p.i.): 0.33 ± 0.29 % ID/g | % ID/g Colon ([1]; 72 h p.i.): 0.25 ± 0.10 % ID/g | % ID/g Heart ([1]; 72 h p.i.): 0.08 ± 0.02 % ID/g | % ID/g Kidney ([1]; 72 h p.i.): 0.24 ± 0.04 % ID/g | % ID/g Liver ([1]; 72 h p.i.): 0.08 ± 0.00 % ID/g | % ID/g Lung ([1]; 72 h p.i.): 0.05 ± 0.01 % ID/g | % ID/g Muscle ([1]; 72 h p.i.): 0.02 ± 0.00 % ID/g | % ID/g Pancreas ([1]; 72 h p.i.): 0.03 ± 0.01 % ID/g | % ID/g Skin ([1]; 72 h p.i.): 0.50 ± 0.26 % ID/g | % ID/g Small intestine ([1]; 72 h p.i.): 0.07 ± 0.03 % ID/g | % ID/g Spleen ([1]; 72 h p.i.): 0.52 ± 0.96 % ID/g | % ID/g Stomach ([1]; 72 h p.i.): 0.16 ± 0.05 % ID/g | % ID/g Testes ([1]; 72 h p.i.): 0.02 ± 0.00 % ID/g | % ID/g Adipose ([1]; 10 d p.i.): 0.01 ± 0.01 % ID/g | % ID/g Bones ([1]; 10 d p.i.): 0.01 ± 0.01 % ID/g | % ID/g Brain ([1]; 10 d p.i.): 0.00 ± 0.00 % ID/g | % ID/g Ceacum ([1]; 10 d p.i.): 0.02 ± 0.02 % ID/g | % ID/g Colon ([1]; 10 d p.i.): 0.02 ± 0.01 % ID/g | % ID/g Heart ([1]; 10 d p.i.): 0.03 ± 0.01 % ID/g | % ID/g Kidney ([1]; 10 d p.i.): 0.04 ± 0.03 % ID/g | % ID/g Liver ([1]; 10 d p.i.): 0.01 ± 0.00 % ID/g | % ID/g Lung ([1]; 10 d p.i.): 0.01 ± 0.01 % ID/g | % ID/g Muscle ([1]; 10 d p.i.): 0.01 ± 0.06 % ID/g | % ID/g Pancreas ([1]; 10 d p.i.): 0.02 ± 0.03 % ID/g | % ID/g Skin ([1]; 10 d p.i.): 0.05 ± 0.06 % ID/g | % ID/g Small intestine ([1]; 10 d p.i.): 0.01 ± 0.00 % ID/g | % ID/g Spleen ([1]; 10 d p.i.): 0.23 ± 0.41 % ID/g | % ID/g Stomach ([1]; 10 d p.i.): 0.03 ± 0.01 % ID/g | % ID/g Testes ([1]; 10 d p.i.): 0.00 ± 0.00 % ID/g | % of radioactivity ([2]; Blood, 1 h after [125I](1) injection): 2.0 ± 2.8% | % of radioactivity ([2]; Blood, 3 h after [125I](1) injection): 0.0 ± 0.0% | % of radioactivity ([2]; Blood, 6 h after [125I](1) injection): 3.5 ± 4.9% | % of radioactivity ([2]; Eyes, 1 h after [125I](1) injection): 90.5 ± 0.7% | % of radioactivity ([2]; Eyes, 3 h after [125I](1) injection): 94.5 ± 2.1% | % of radioactivity ([2]; Eyes, 6 h after [125I](1) injection): 96.0 ± 5.7% | % of radioactivity ([2]; Eyes, 24 h after [125I](1) injection): 90.0 ± 2.8% | % of radioactivity ([2]; Eyes, 72 h after [125I](1) injection): 96.5 ± 4.9% | % of radioactivity ([2]; Eyes, 10 d after [125I](1) injection): 100.0 ± 0.0% | % of radioactivity ([2]; Feces, (grid: 3 h; faeces collected 24-48 h)): 2.5 ± 0.7% | % of radioactivity ([2]; Feces, first value column (grid: 1 h; faeces collected 0-24 h)): 5.0 ± 0.0% | % of radioactivity ([2]; Kidney, 1 h after [125I](1) injection): 12.5 ± 2.1% | % of radioactivity ([2]; Kidney, 3 h after [125I](1) injection): 6.1 ± 2.9% | % of radioactivity ([2]; Kidney, 6 h after [125I](1) injection): 0.0 ± 0.0% | % of radioactivity ([2]; Liver, 1 h after [125I](1) injection): 27.5 ± 0.7% | % of radioactivity ([2]; Liver, 3 h after [125I](1) injection): 24.0 ± 4.2% | % of radioactivity ([2]; Liver, 6 h after [125I](1) injection): 8.5 ± 0.7% | % of radioactivity ([2]; Liver, 24 h after [125I](1) injection): 0.0 ± 0.0% | % of radioactivity ([2]; Tumour, 1 h after [125I](1) injection): 87.0 ± 1.4% | % of radioactivity ([2]; Tumour, 3 h after [125I](1) injection): 81.0 ± 1.4% | % of radioactivity ([2]; Tumour, 6 h after [125I](1) injection): 77.0 ± 0.0% | % of radioactivity ([2]; Tumour, 24 h after [125I](1) injection): 92.5 ± 9.2% | % of radioactivity ([2]; Tumour, 72 h after [125I](1) injection): 91.5 ± 3.5% | % of radioactivity ([2]; Tumour, 10 d after [125I](1) injection): 100.0 ± 0.0% | % of radioactivity ([2]; Urine, 1 h after [125I](1) injection): 12.6 ± 0.5% | % of radioactivity ([2]; Urine, 3 h after [125I](1) injection): 0.0 ± 0.0% | % of radioactivity ([2]; Urine, 6 h after [125I](1) injection): 0.0 ± 0.0% | % of radioactivity ([2]; Urine, 24 h after [125I](1) injection): 0.0 ± 0.0% | % of radioactivity ([2]; Urine, 72 h after [125I](1) injection): 0.0 ± 0.0%
